The target in one assay is KDR (Homo sapiens, UniProt P35968). Put plainly: KDR autophosphorylation ELISA in HUVEC cells. The class given is cell-based. To be noted: Table 3 Cellular Activities, VEGF165-stimulated, phospho-KDR ELISA. Also on record: endogenous in cells; host or cells: HUVEC (Lonza #C2519A). In outline:
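HUVEC, 24 h serum-free starvation; cpd 8-pt dilution, 0.3% DMSO final, 1 h; VEGF165 100 ng/mL, 5 min; cold lysis; phospho-KDR ELISA; IC50, 4PL.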
On the technique in general: An ELISA detects its analyte on a solid surface through an enzyme-linked reagent.

A further assay concerns the target T1, Mer (Homo sapiens, UniProt Q12866).
T1 construct: host or cells: 293A cells (Thermo Fisher #R70507)
T1 sequence (Q12866 21-999): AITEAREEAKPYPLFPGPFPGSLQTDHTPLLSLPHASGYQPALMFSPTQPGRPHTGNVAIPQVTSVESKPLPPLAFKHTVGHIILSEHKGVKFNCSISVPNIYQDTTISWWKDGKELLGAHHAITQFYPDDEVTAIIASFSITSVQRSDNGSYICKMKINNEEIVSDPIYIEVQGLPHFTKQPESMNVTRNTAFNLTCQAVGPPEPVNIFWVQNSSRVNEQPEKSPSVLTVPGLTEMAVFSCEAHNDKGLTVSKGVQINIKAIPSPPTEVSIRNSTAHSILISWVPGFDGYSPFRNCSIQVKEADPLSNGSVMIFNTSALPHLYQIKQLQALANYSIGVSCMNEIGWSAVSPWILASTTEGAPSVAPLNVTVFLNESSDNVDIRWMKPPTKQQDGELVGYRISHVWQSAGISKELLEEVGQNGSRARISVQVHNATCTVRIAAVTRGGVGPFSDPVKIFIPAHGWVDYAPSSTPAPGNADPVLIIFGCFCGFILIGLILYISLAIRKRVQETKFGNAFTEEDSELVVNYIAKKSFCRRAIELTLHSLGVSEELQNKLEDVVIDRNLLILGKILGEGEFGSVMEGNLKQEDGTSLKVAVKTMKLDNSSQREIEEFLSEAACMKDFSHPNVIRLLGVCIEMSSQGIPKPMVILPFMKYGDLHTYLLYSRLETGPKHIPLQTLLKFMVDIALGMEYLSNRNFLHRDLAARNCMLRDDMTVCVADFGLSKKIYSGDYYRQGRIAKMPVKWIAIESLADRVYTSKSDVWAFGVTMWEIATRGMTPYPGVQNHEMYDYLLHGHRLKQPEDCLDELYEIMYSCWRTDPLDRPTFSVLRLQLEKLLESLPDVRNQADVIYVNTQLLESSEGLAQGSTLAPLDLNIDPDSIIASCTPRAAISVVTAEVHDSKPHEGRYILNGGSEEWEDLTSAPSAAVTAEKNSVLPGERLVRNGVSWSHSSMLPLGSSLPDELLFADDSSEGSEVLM
Put plainly: Mer autophosphorylation ELISA in transient transfected 293A cells. Type of assay: cell-based. The note with it: Table 3 Cellular Activities; MERTK-transfected 293A cells, phospho-Mer ELISA. In outline:
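Phospho-Mer quantified by ELISA in lysates of transiently MERTK-transfected 293A cells after 1 h exposure to an 8-point compound series, serum-free, 0.3% DMSO. Activity normalized between DMSO-treated (100%) and reference inhibitor-treated (0%) lysates; IC50 via 4-parameter nonlinear regression.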

KDR, sequence (P35968 20-1356): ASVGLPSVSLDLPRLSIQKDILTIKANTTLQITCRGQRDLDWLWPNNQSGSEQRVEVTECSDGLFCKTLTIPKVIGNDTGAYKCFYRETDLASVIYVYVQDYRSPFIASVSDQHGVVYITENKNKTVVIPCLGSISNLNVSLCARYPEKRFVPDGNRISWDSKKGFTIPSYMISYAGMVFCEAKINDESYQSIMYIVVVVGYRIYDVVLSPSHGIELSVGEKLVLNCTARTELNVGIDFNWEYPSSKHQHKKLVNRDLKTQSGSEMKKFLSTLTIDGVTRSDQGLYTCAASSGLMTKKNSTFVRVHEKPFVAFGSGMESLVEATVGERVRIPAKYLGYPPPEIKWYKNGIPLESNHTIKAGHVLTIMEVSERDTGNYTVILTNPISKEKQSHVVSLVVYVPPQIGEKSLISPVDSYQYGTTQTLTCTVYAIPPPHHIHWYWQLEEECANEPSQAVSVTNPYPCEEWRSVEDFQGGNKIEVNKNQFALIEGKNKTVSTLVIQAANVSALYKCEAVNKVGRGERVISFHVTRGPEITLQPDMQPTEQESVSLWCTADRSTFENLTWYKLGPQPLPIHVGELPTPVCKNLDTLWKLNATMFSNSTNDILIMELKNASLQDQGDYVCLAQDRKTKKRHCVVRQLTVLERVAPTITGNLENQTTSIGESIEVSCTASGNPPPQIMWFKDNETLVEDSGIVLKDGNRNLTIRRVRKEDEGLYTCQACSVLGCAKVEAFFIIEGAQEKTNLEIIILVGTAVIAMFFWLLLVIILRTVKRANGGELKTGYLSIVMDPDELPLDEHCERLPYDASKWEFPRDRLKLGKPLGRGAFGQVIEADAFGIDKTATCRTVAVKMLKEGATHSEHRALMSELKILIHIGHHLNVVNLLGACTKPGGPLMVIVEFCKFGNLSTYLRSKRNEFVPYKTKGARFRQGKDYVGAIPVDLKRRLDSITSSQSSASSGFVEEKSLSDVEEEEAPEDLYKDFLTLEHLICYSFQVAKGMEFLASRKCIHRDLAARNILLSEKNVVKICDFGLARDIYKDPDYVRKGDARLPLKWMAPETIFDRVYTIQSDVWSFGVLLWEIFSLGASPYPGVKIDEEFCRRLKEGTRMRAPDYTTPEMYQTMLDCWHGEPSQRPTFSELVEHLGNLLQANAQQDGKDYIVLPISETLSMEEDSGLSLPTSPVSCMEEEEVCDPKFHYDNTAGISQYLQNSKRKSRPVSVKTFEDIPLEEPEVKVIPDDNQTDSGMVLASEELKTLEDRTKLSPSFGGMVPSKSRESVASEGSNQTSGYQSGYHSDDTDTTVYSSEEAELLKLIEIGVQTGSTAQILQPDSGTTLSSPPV

Usually IC50 stands for the concentration needed to halve the response being measured. High values mean weaker potency, low ones greater potency. On to `COc1cnc2c(Oc3ccc(NC(=O)c4cnc(C)c(-c5ccsc5)c4O)cc3F)ccnc2c1` [Compound 98, N-[3-Fluoro-4-[(7-methoxy-1,5-naphthyridin-4-yl)oxy]phenyl]-4-hydroxy-6-methyl-5-(3-thienyl)pyridine-3-carboxamide], for which the IC50 against KDR and at Mer was not above 100 nM each time.

Take `C=CCc1ccc(-c2c(C)ncc(C(=O)Nc3ccc(Oc4ccnc5cc(OC)c(OC)nc45)c(F)c3)c2O)o1` [Compound 155, N-[4-[(6,7-Dimethoxy-1,5-naphthyridin-4-yl)oxy]-3-fluorophenyl]-4-hydroxy-6-methyl-5-(5-prop-2-enylfuran-2-yl)pyridine-3-carboxamide]: the IC50 against KDR and on Mer was not above 100 nM throughout.

`COc1cnc2c(Oc3ccc(NC(=O)c4cnc(C)c(-c5ccco5)c4O)cc3F)ccnc2c1` [Compound 96, N-[3-Fluoro-4-[(7-methoxy-1,5-naphthyridin-4-yl)oxy]phenyl]-5-(2-furyl)-4-hydroxy-6-methyl-pyridine-3-carboxamide]: the IC50 against KDR and on Mer was not above 100 nM throughout.

In the case of `COc1cc2nccc(Oc3ccc(NC(=O)c4cnc(C)c(-c5cccs5)c4O)cc3F)c2nc1OC` [Compound 90, N-[4-[(6,7-Dimethoxy-1,5-naphthyridin-4-yl)oxy]-3-fluoro-phenyl]-4-hydroxy-6-methyl-5-(2-thienyl)pyridine-3-carboxamide], the IC50 at KDR and against Mer was not above 100 nM each time.

Regarding `COc1cc2nccc(Oc3ccc(NC(=O)c4c(C)ncc(-c5cccs5)c4O)cc3F)c2nc1OC` [Compound 123, N-[4-[(6,7-Dimethoxy-1,5-naphthyridin-4-yl)oxy]-3-fluorophenyl]-4-hydroxy-2-methyl-5-thiophen-2-ylpyridine-3-carboxamide], the IC50 at KDR and against Mer was not above 100 nM in each case.

`COc1cc2nccc(Oc3ccc(NC(=O)c4c(C)nc(C)c(-c5ccoc5)c4O)cc3F)c2nc1OC` [Compound 112, N-[4-[(6,7-Dimethoxy-1,5-naphthyridin-4-yl)oxy]-3-fluoro-phenyl]-5-(3-furyl)-4-hydroxy-2,6-dimethyl-pyridine-3-carboxamide]: the half-maximal inhibitory concentration (IC50) at KDR and against Mer was not above 100 nM in each case.

For the compound `COc1cc2nccc(Oc3ccc(NC(=O)c4c(C)n(C)c(C)c(-c5ccco5)c4=O)cc3)c2nc1OC` [Compound 164, N-[4-[(6,7-Dimethoxy-1,5-naphthyridin-4-yl)oxy]phenyl]-5-(furan-2-yl)-1,2,6-trimethyl-4-oxopyridine-3-carboxamide], the IC50 on KDR was 300 to 1000 nM; against Mer, not above 100 nM.

With `COc1cc2nccc(Oc3ccc(NC(=O)c4cnc(C)c(-c5cc(C)cs5)c4O)cc3F)c2nc1OC` [Compound 91, N-[4-[(6,7-Dimethoxy-1,5-naphthyridin-4-yl)oxy]-3-fluoro-phenyl]-4-hydroxy-6-methyl-5-(4-methyl-2-thienyl) pyridine-3-carboxamide], the IC50 against KDR and against Mer was not above 100 nM throughout.

Consider `COCc1nc(C)c(-c2cccs2)c(O)c1C(=O)Nc1ccc(Oc2ccnc3cc(OC)c(OC)nc23)c(F)c1` [Compound 115, N-[4-[(6,7-Dimethoxy-1,5-naphthyridin-4-yl)oxy]-3-fluorophenyl]-4-hydroxy-2-(methoxymethyl)-6-methyl-5-thiophen-2-ylpyridine-3-carboxamide], for which the IC50 at KDR and against Mer was not above 100 nM in each case.

On to `COc1cc2nccc(Oc3ccc(NC(=O)c4c(C)ncc(-c5cc(C)cs5)c4O)cc3F)c2nc1OC` [Compound 125, N-[4-[(6,7-Dimethoxy-1,5-naphthyridin-4-yl)oxy]-3-fluorophenyl]-4-hydroxy-2-methyl-5-(4-methylthiophen-2-yl)pyridine-3-carboxamide], for which the IC50 against KDR and at Mer was not above 100 nM in each case.

`COc1cc2nccc(Oc3ccc(NC(=O)c4c(C)nc(C)c(-c5ccco5)c4O)cc3F)c2nc1OC` [Compound 135, N-[4-[(6,7-Dimethoxy-1,5-naphthyridin-4-yl)oxy]-3-fluorophenyl]-5-(furan-2-yl)-4-hydroxy-2,6-dimethylpyridine-3-carboxamide]: the IC50 at KDR and against Mer was not above 100 nM throughout.

On to `COCc1nc(C)c(-c2ccccn2)c(O)c1C(=O)Nc1ccc(Oc2ccnc3cc(OC)c(OC)nc23)c(F)c1` [Compound 195, N-[4-[(6,7-Dimethoxy-1,5-naphthyridin-4-yl)oxy]-3-fluorophenyl]-4-hydroxy-2-(methoxymethyl)-6-methyl-5-pyridin-2-ylpyridine-3-carboxamide], for which the IC50 at KDR and against Mer was not above 100 nM each time.

As for `COc1cc2nccc(Oc3ccc(NC(=O)c4c(C)n(C)c(C)c(-c5cccs5)c4=O)cc3)c2nc1OC` [Compound 167, N-[4-[(6,7-Dimethoxy-1,5-naphthyridin-4-yl)oxy]phenyl]-1,2,6-trimethyl-4-oxo-5-thiophen-2-ylpyridine-3-carboxamide], the results for the IC50 against KDR and at Mer were 300 to 1000 nM and not above 100 nM, respectively.

As to `COc1cc2nccc(Oc3ccc(NC(=O)c4cnc(C)c(-c5ccc(C)o5)c4O)cc3F)c2nc1OC` [Compound 92, N-[4-[(6,7-Dimethoxy-1,5-naphthyridin-4-yl)oxy]-3-fluoro-phenyl]-4-hydroxy-6-methyl-5-(5-methyl-2-furyl)pyridine-3-carboxamide], the IC50 on KDR and on Mer was not above 100 nM each time.

Consider `COc1cnc2c(Oc3ccc(NC(=O)c4cnc(C)c(-c5ccco5)c4O)cc3)ccnc2c1` [Compound 129, 5-(Furan-2-yl)-4-hydroxy-N-[4-[(7-methoxy-1,5-naphthyridin-4-yl)oxy]phenyl]-6-methylpyridine-3-carboxamide], for which the IC50 against KDR and on Mer was not above 100 nM in each case.

Turning to `CCc1ccc(-c2c(C)ncc(C(=O)Nc3ccc(Oc4ccnc5cc(OC)c(OC)nc45)c(F)c3)c2O)o1` [Compound 153, N-[4-[(6,7-Dimethoxy-1,5-naphthyridin-4-yl)oxy]-3-fluorophenyl]-5-(5-ethylfuran-2-yl)-4-hydroxy-6-methylpyridine-3-carboxamide], the IC50 at KDR and on Mer was not above 100 nM throughout.

As for `COc1cc2nccc(Oc3ccc(NC(=O)c4c(C)nc(C)c(-c5ccc(C)s5)c4O)cc3F)c2nc1OC` [Compound 111, N-[4-[(6,7-Dimethoxy-1,5-naphthyridin-4-yl)oxy]-3-fluoro-phenyl]-4-hydroxy-2,6-dimethyl-5-(5-methyl-2-thienyl)pyridine-3-carboxamide], the IC50 against KDR and at Mer was not above 100 nM each time.

For `C=C(C)c1ccc(-c2c(C)ncc(C(=O)Nc3ccc(Oc4ccnc5cc(OC)c(OC)nc45)c(F)c3)c2O)o1` [Compound 152, N-[4-[(6,7-Dimethoxy-1,5-naphthyridin-4-yl)oxy]-3-fluorophenyl]-4-hydroxy-6-methyl-5-(5-prop-1-en-2-ylfuran-2-yl)pyridine-3-carboxamide], the IC50 on KDR and against Mer was not above 100 nM each time.

Take `COc1cc2nccc(Oc3ccc(NC(=O)c4c(C)ncc(-c5ccc(C)o5)c4O)cc3F)c2nc1OC` [Compound 120, N-[4-[(6,7-Dimethoxy-1,5-naphthyridin-4-yl)oxy]-3-fluorophenyl]-4-hydroxy-2-methyl-5-(5-methylfuran-2-yl)pyridine-3-carboxamide]: the IC50 against KDR and against Mer was not above 100 nM throughout.

On to `COc1cc2nccc(Oc3ccc(NC(=O)c4c(C)ncc(-c5ccsc5)c4O)cc3F)c2nc1OC` [Compound 127, N-[4-[(6,7-Dimethoxy-1,5-naphthyridin-4-yl)oxy]-3-fluorophenyl]-4-hydroxy-2-methyl-5-thiophen-3-ylpyridine-3-carboxamide], for which the IC50 at KDR and against Mer was not above 100 nM throughout.

Source of the values: US20230151003A1, “COMPOUNDS AND METHODS OF USE” (Exelixis, Inc., priority 2020, published 2023).
